Measured values taken from publication PMC6039436, “Radiobrominated benzimidazole-quinoline derivatives as Platelet-derived growth factor receptor beta (PDGFRβ) imaging probes” (Scientific Reports, 2018).
“And” between values parts separate entries of the source, which are not always exact repeats. Identical values can stand only once.

Experiments:
[1] = Biodistribution in ddY mice; format: in vivo; conditions: i.v. co-injection
Method: In this study, to minimize both the number of mice consumed in the experiment and the potential for experimental errors, we co-injected radiobrominated and radioiodinated compounds into mice[30],[31]. High radioactivity in the liver, small intestine, and large intestine was observed.
(§1) Mice were intravenously injected via the tail with 100 µL of saline solution of [^77Br]2 and [^125I]4 or [^77Br]3 and [^125I]5 (74 kBq, respectively), containing 10% ethanol and 1% tween-80. The ddY mice were sacrificed at 10 min, 1, 4, and 24 h postinjection. Meanwhile, tumor-bearing mice were sacrificed at 1 h postinjection.
(§2) Tissues in mice were resected and weighed. The radioactivity of the tissues was counted by a gamma counter and counts were corrected for background radiation. The data were expressed as percent injection dose per gram tissue (%ID/g).

BxPC3-luc tumor = experiment: Biodistribution in BxPC3-luc tumor-bearing mice; format: in vivo, BALB/c nu/nu mice
Method: We investigated the biodistribution of the radiotracers in BxPC3-luc tumor-bearing mice by co-injecting [^77Br]2 with [^125I]4 (Table 3), and [^77Br]3 with [^125I]5 (Table 4).
Animal experiments were conducted in strict accordance with the Guidelines for the Care and Use of Laboratory Animals of Kanazawa University. The animal experimental protocols used were approved by the Committee on Animal Experimentation of Kanazawa University (Permit Number: AP-163766). The animals were housed with free access to food and water at approximately 23 °C with a 12 h light/dark schedule. ddY mice (six-week-old, male, 27–30 g) and BALB/c nu/nu mice (four-week-old, female, 12–17 g) were purchased from Japan SLC Inc. (Hamamatsu, Japan). For preparing the tumor-bearing mice, BxPC3-luc cells (5 × 10^6 cells) were subcutaneously injected into the left shoulder of BALB/c nu/nu mice. The tumor reached palpable size after two weeks of the inoculation.
as §1, §2

[2] = In vitro stability in 0.1 M PBS (pH 7.4); format: physicochemical; conditions: 24 h incubation at 37 °C, purity by TLC
Method: The stability of [^77Br]2 and [^77Br]3 in 0.1 M phosphate-buffered saline (PBS) (pH 7.4) was high (93.6 ± 0.9% and 93.0 ± 0.6%, respectively). There was no significant decomposition after 24 h incubation at 37 °C for either radiotracer.
The stability of radiolabeled compounds, [^77Br]2 and [^77Br]3, were analyzed as described previously. The purities radiolabeled compounds were determined by TLC using chloroform/methanol = 5/1 and 20/1 as a developing solvent for [^77Br]2 and [^77Br]3, respectively. The results were confirmed by RP-HPLC.

BxPC3-luc cells = experiment: In vitro blocking study; format: cell-based; conditions: inhibitor 1, 2 or 3 at 10 µM, 10 min pretreatment
Method: Blocking studies using 1, 2, and 3 were performed (Fig. 6). Pretreatment of an excess amount of 1 or 2 decreased uptakes of [^77Br]2 in BxPC3-luc cells. The uptake of [^77Br]3 was inhibited by a pretreatment using 1 or 3 in the same way.
Figure 6 In vitro blocking studies of (a) [^77Br]2 and (b) [^77Br]3 in BxPC3-luc and MCF7 cells. Data were presented as mean ± SD for three samples. Significance was determined using a one-way ANOVA followed by Dunnett’s post hoc test (^*p < 0.001, vs control [^77Br]2 or [^77Br]3).
For in vitro blocking experiment, inhibitor (1, 2, or 3 with final concentration 10 µM) in 1 mL of medium without FBS was added to wells containing 2 × 10^5 cells/well. After 10 min incubation, [^77Br]2 or [^77Br]3 (3.7 kBq/well) in 1 mL of medium without FBS was added to each well. Radioactivity and protein concentration in the cells were determined by the same method above-mentioned.

Radioactivity in Blood ([1]; 10 min): 0.99 (0.03) %injected dose/gram tissue
Radioactivity in Bone ([1]; 10 min): 2.81 (1.06) %injected dose/gram tissue
Radioactivity in Brain ([1]; 10 min): 0.12 (0.01) %injected dose/gram tissue
Radioactivity in Heart ([1]; 10 min): 4.41 (0.27) %injected dose/gram tissue
Radioactivity in Kidney ([1]; 10 min): 15.61 (1.32) %injected dose/gram tissue
Radioactivity in Large intestine ([1]; 10 min): 0.99 (0.10) %injected dose/gram tissue
Radioactivity in Liver ([1]; 10 min): 12.49 (0.64) %injected dose/gram tissue
Radioactivity in Lung ([1]; 10 min): 10.92 (0.55) %injected dose/gram tissue
Radioactivity in Muscle ([1]; 10 min): 2.24 (0.18) %injected dose/gram tissue
Radioactivity in Pancreas ([1]; 10 min): 4.18 (0.38) %injected dose/gram tissue
Radioactivity in Small intestine ([1]; 10 min): 8.58 (2.18) %injected dose/gram tissue
Radioactivity in Spleen ([1]; 10 min): 5.39 (0.40) %injected dose/gram tissue
Radioactivity in Stomach ([1]; 10 min): 1.74 (0.15) %injected dose /organ
Radioactivity in Blood ([1]; 1 h): 0.28 (0.06) %injected dose/gram tissue
Radioactivity in Bone ([1]; 1 h): 1.15 (0.15) %injected dose/gram tissue
Radioactivity in Brain ([1]; 1 h): 0.10 (0.01) %injected dose/gram tissue
Radioactivity in Heart ([1]; 1 h): 1.15 (0.17) %injected dose/gram tissue
Radioactivity in Kidney ([1]; 1 h): 10.12 (3.49) %injected dose/gram tissue
Radioactivity in Large intestine ([1]; 1 h): 2.69 (0.65) %injected dose/gram tissue
Radioactivity in Liver ([1]; 1 h): 4.26 (1.37) %injected dose/gram tissue
Radioactivity in Lung ([1]; 1 h): 4.32 (0.84) %injected dose/gram tissue
Radioactivity in Muscle ([1]; 1 h): 0.92 (0.04) %injected dose/gram tissue
Radioactivity in Pancreas ([1]; 1 h): 2.98 (0.75) %injected dose/gram tissue
Radioactivity in Small intestine ([1]; 1 h): 29.51 (7.92) %injected dose/gram tissue
Radioactivity in Spleen ([1]; 1 h): 1.59 (0.28) %injected dose/gram tissue
Radioactivity in Stomach ([1]; 1 h): 1.62 (0.55) %injected dose /organ
Radioactivity in Blood ([1]; 4 h): 0.20 (0.03) %injected dose/gram tissue
Radioactivity in Bone ([1]; 4 h): 1.50 (1.27) %injected dose/gram tissue
Radioactivity in Brain ([1]; 4 h): 0.09 (0.00) %injected dose/gram tissue
Radioactivity in Heart ([1]; 4 h): 0.58 (0.13) %injected dose/gram tissue
Radioactivity in Kidney ([1]; 4 h): 4.33 (0.75) %injected dose/gram tissue
Radioactivity in Large intestine ([1]; 4 h): 53.70 (8.89) %injected dose/gram tissue
Radioactivity in Liver ([1]; 4 h): 3.44 (0.98) %injected dose/gram tissue
Radioactivity in Lung ([1]; 4 h): 2.71 (1.06) %injected dose/gram tissue
Radioactivity in Muscle ([1]; 4 h): 0.44 (0.07) %injected dose/gram tissue
Radioactivity in Pancreas ([1]; 4 h): 1.63 (0.19) %injected dose/gram tissue
Radioactivity in Small intestine ([1]; 4 h): 4.76 (0.89) %injected dose/gram tissue
Radioactivity in Spleen ([1]; 4 h): 0.69 (0.24) %injected dose/gram tissue
Radioactivity in Stomach ([1]; 4 h): 0.81 (0.21) %injected dose /organ
Radioactivity in Blood ([1]; 24 h): 0.12 (0.02) %injected dose/gram tissue
Radioactivity in Bone ([1]; 24 h): 0.55 (0.10) %injected dose/gram tissue
Radioactivity in Brain ([1]; 24 h): 0.07 (0.00) %injected dose/gram tissue
Radioactivity in Heart ([1]; 24 h): 0.29 (0.03) %injected dose/gram tissue
Radioactivity in Kidney ([1]; 24 h): 0.21 (0.05) %injected dose/gram tissue
Radioactivity in Large intestine ([1]; 24 h): 0.18 (0.03) %injected dose/gram tissue
Radioactivity in Liver ([1]; 24 h): 0.29 (0.08) %injected dose/gram tissue
Radioactivity in Lung ([1]; 24 h): 0.29 (0.05) %injected dose/gram tissue
Radioactivity in Muscle ([1]; 24 h): 0.22 (0.02) %injected dose/gram tissue
Radioactivity in Pancreas ([1]; 24 h): 0.41 (0.34) %injected dose/gram tissue
Radioactivity in Small intestine ([1]; 24 h): 0.07 (0.01) %injected dose/gram tissue
Radioactivity in Spleen ([1]; 24 h): 0.66 (0.77) %injected dose/gram tissue
Radioactivity in Stomach ([1]; 24 h): 0.11 (0.01) %injected dose /organ
Tumor-to-blood ratio of radioactivity (BxPC3-luc tumor; 1 h postinjection): 2.8
Radioactivity in Stomach (BxPC3-luc tumor; i.v. co-injection, 1 h): 0.96 (0.20) %injected dose /organ
Stability in 0.1 M PBS (pH 7.4) [2]: 93.6 ± 0.9%
Compound: COCCOc1ccc2c(c1)ncn2-c1ccc2c([77Br])ccc(N3CCC(N)CC3)c2n1 [[^77Br]2, [^77Br]1-{5-Bromo-2-[5-(2-methoxyethoxy)-1H-benzo[d]imidazol-1-yl]quinoline-8-yl}piperidin-4-amine]
Radioactivity in Blood (BxPC3-luc tumor; i.v. co-injection, 1 h): 0.58 (0.10) %injected dose/gram of tissue
Radioactivity in Bone (BxPC3-luc tumor; i.v. co-injection, 1 h): 1.15 (0.09) %injected dose/gram of tissue
Radioactivity in Brain (BxPC3-luc tumor; i.v. co-injection, 1 h): 0.14 (0.03) %injected dose/gram of tissue
Radioactivity in BxPC3-luc tumor (BxPC3-luc tumor; i.v. co-injection, 1 h): 1.61 %injected dose/gram of tissue and 1.61 ± 0.24 %injected dose/gram of tissue and 1.61 (0.24) %injected dose/gram of tissue
Radioactivity in Heart (BxPC3-luc tumor; i.v. co-injection, 1 h): 1.88 (0.33) %injected dose/gram of tissue
Radioactivity in Kidney (BxPC3-luc tumor; i.v. co-injection, 1 h): 17.39 (4.03) %injected dose/gram of tissue
Radioactivity in Large intestine (BxPC3-luc tumor; i.v. co-injection, 1 h): 3.22 (0.40) %injected dose/gram of tissue
Radioactivity in Liver (BxPC3-luc tumor; i.v. co-injection, 1 h): 11.07 (1.04) %injected dose/gram of tissue
Radioactivity in Lung (BxPC3-luc tumor; i.v. co-injection, 1 h): 10.31 (1.91) %injected dose/gram of tissue
Radioactivity in Muscle (BxPC3-luc tumor; i.v. co-injection, 1 h): 0.94 (0.08) %injected dose/gram of tissue
Radioactivity in Pancreas (BxPC3-luc tumor; i.v. co-injection, 1 h): 6.61 (1.00) %injected dose/gram of tissue
Radioactivity in Small intestine (BxPC3-luc tumor; i.v. co-injection, 1 h): 51.52 (9.93) %injected dose/gram of tissue
Radioactivity in Spleen (BxPC3-luc tumor; i.v. co-injection, 1 h): 2.94 (0.54) %injected dose/gram of tissue
Uptake in BxPC3-luc cells after pretreatment with excess inhibitor (BxPC3-luc cells): decreased
